# Reference: ChEMBL document CHEMBL2384948, “Aeruginosins from a Microcystis sp. bloom material collected in Varanasi, India” (J Nat Prod, 2013)
# Target: Trypsin (Homo sapiens, UniProt P07477+P07478+P35030)
# Assay: Inhibition of trypsin (unknown origin)
# Format: protein assay
row,IC50,SMILES
1,0.5 µg/mL,N=C(N)NCCCCNC(=O)[C@@H]1C[C@@H]2CC[C@@H](O)C[C@@H]2N1C(=O)[C@H](Cc1ccccc1)NC(=O)[C@@H](O)Cc1ccc(O)cc1
2,4.3 µM,CC(C)C[C@@H](NC(=O)[C@H](O)Cc1ccc(O)c(Cl)c1)C(=O)N1[C@H](C(=O)NCCCCNC(=N)N)C[C@@H]2CC[C@@H](O)C[C@@H]21
3,2.8 µM,CC[C@H](C)[C@@H](NC(=O)[C@@H](O)Cc1ccc(O)c(Cl)c1)C(=O)N1[C@H](C(=O)NCCCCNC(=N)N)C[C@@H]2CC[C@@H](O)C[C@@H]21
4,4.1 µM,CC(C)C[C@@H](NC(=O)[C@H](O)Cc1ccc(O)c(Br)c1)C(=O)N1[C@H](C(=O)NCCCCNC(=N)N)C[C@@H]2CC[C@@H](O)C[C@@H]21
